Values after ≈ are worked out from the molar mass of the structure shown.
Legend:
[1] = test system: Aspergillus niger LOCK E201; assay: Antifungal activity in vitro, serial dilution in RPMI 1640; format: cell-based; details: Table 2B
Summary of the method: (§1)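 Broth serial dilution per M27-A2 in buffered RPMI 1640, pH 7.0. Growth read as optical density at 531 nm; IC50 interpolated as concentration giving 50% of control A531, MIC as lowest concentration giving at most 20% of control A531.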

[2] = test system: Candida albicans ATCC 10231; assay: as above; format: cell-based
Summary of the method: as §1

Candida arborea KKP 319 = assay: as above; format: cell-based; details: Table 2B
Summary of the method: as §1

[3] = test system: Candida dubliniensis CBS 7987; assay: as above; format: cell-based; details: Table 2B
Summary of the method: as §1

[4] = test system: Candida glabrata DSM 11226; assay: as above; format: cell-based; details: Table 2A; RPMI 1640, pH 7.0
Summary of the method: as §1

Candida krusei DSM 6128 = assay: as above; format: cell-based; details: Table 2A; RPMI 1640, pH 7.0
Summary of the method: as §1

[5] = test system: Candida lipolytica KKP 322; assay: as above; format: cell-based; details: Table 2B
Summary of the method: as §1

[6] = test system: Candida parapsilosis DSM 5784; assay: as above; format: cell-based; details: Table 2B
Summary of the method: as §1

[7] = test system: Candida pseudotropicalis KKP 324; assay: as above; format: cell-based; details: Table 2B
Summary of the method: as §1

[8] = test system: Candida quilliermondii DSM 11947; assay: as above; format: cell-based; details: Table 2B
Summary of the method: as §1

[9] = test system: Candida stellatoidea CBS 1905; assay: as above; format: cell-based; details: Table 2B
Summary of the method: as §1

[10] = test system: Candida tropicalis KKP 334; assay: as above; format: cell-based; details: Table 2A; RPMI 1640, pH 7.0
Summary of the method: as §1

[11] = test system: Saccharomyces cerevisiae ATCC 9763; assay: as above; format: cell-based
Summary of the method: as §1

[12] = test system: Trichoderma viride LOCK E159; assay: as above; format: cell-based; details: Table 2B
Summary of the method: as §1

Human erythrocytes = assay: Hemotoxicity (hemolytic activity)
Summary of the method: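 Human erythrocytes in saline (2×10^7/ml) were incubated with serially diluted compound at 37 °C for 30 min, then centrifuged. Released hemoglobin was read as A540 against 0.1% Triton X-100 as full hemolysis. EH50 is the interpolated concentration giving 50% of the control A540.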

Candida albicans 5674 = assay: Antifungal activity towards resistant (MDR) strains; format: cell-based; details: C. albicans 5674 overexpressing CDR1 and CDR2
Protocol: (§2) The determination of antifungal activity was performed by the serial dilutions method in buffered RPMI 1640 medium, in a 96-wells microplates, according to the standard procedure (National Committee for Clinical Laboratory Standards. Reference method for broth dilution antifungal susceptibility testing of yeast, approved standard, 2nd ed. M27-A2 vol. 22 Wayne, Pa., 2002). The optical density of cells suspension was measured using a microplates reader (Victor^3, Perkin-Elmer) at the wavelength λ=660 nm (A660). On the basis of received results the diagrams on interrelation between the A660 value and the concentration of tested compound were made. From these graphs MIC values were read, that are the concentrations of tested compounds, in the presence at which A660 value is at most 20% of A660 value measured in control sample.

Candida albicans B3 = assay: as above; format: cell-based; details: fluconazole sensitive, parent strain for B4
Protocol: as §2

Candida albicans B4 = assay: as above; format: cell-based; details: fluconazole-resistant due to the overexpression of CaMDR1
Protocol: as §2

Candida albicans F2 = assay: as above; format: cell-based; details: fluconazole sensitive, parent strain for F5
Protocol: as §2

Candida albicans F5 = assay: as above; format: cell-based; details: fluconazole-resistant due to the overexpression of CaMDR1 and ERG11
Protocol: as §2

Candida albicans Gu4 = assay: as above; format: cell-based; details: fluconazole sensitive, parent strain for Gu5
Protocol: as §2

Candida albicans Gu5 = assay: as above; format: cell-based; details: fluconazole-resistant due to the overexpression of CDR1 and CDR2
Protocol: as §2

Candida albicans STY19 = assay: as above; format: cell-based; details: 5674 mutant derivative, deletion of CDR1
Protocol: as §2

Candida albicans STY31 = assay: as above; format: cell-based; details: 5674 mutant derivative, deletion of CDR1 and CDR2
Protocol: as §2

Candida albicans STY7 = assay: as above; format: cell-based; details: 5674 mutant derivative, deletion of CDR2
Protocol: as §2

CCRF-CEM = assay: Cytotoxic activity against mammalian cells in tissue culture (MTT); format: cell-based, human
Protocol: (§3) For examinations were used selected cell lines: CCRF-CEM—human acute lymphoblastic leukemia; HepG2—human malignant hepatoma; LLC-PK1—epithelial cell of pig kidney; All lines were from ATCC collection.
(§4) The study are conducted using described below methods of culturing and determination of cytotoxic activity.
(§5) CCRF-CEM cells were cultured in medium RPMI 1640+10% fetal bovine serum (FBS), LLC-PK1 cells in medium Medium 199+3% FBS, HepG2 cells in medium MEM+10% FBS. All media contained 100 μg/ml of penicillin G and streptomycin. 24-wells microplates containing appropriate medium were inoculated with the cells in amount of 1.2×10^4 cells/well and allowed to stand overnight. Next, tested compounds as solution in dimethylsulfoxide (DMSO) were added in volume of 10 μl (serial 2× dilutions). To control well 10 μl of DMSO was added. Microplates with cell suspensions were incubated for 120 h at temperature 37° C. at atmosphere of 95%/5% CO2. After incubation, to all wells 200 μl of solution of 3-(4,5-dimethylthiazole-2-yl)-2,5-diphenylotetrazole bromide (MTT) in PBS (4 mg/ml) was added and plates were further incubated for 4 h at 37° C. Next, to dissolve crystals of formazane 1 ml of DMSO was added and absorption of solutions was measured at the wavelength λ=540 nm (A540), using a microplates reader (Victor^3, Perkin-Wallac). […] From these graphs IC50 values were read, that is concentration of tested compound in the presence at which A540 value is half of A540 value measured in the control sample.

HepG2 = assay: as above; format: cell-based, human
Protocol: as §3, §4, §5

LLC-PK1 = assay: as above; format: cell-based, pig
Protocol: as §3, §4, §5

[13] = Table 2A, RPMI 1640, pH 7.0, A531 at most 20% of control

Q: With `CCCN(CCC)[C@@H]1[C@H](O)[C@H](O[C@H]2/C=C/C=C/C=C/C=C/CC/C=C/C=C/[C@H](C)[C@@H](O)[C@@H](C)[C@H](C)OC(=O)C[C@H](O)C[C@H](O)C[C@H](O)CC[C@@H](O)[C@H](O)C[C@]3(O)C[C@H](O)[C@@H](C(=O)O)[C@H](C2)O3)O[C@H](C)[C@H]1O` [Compound N22, N,N-di-n-propylnystatin A1] as the compound, how does the “MIC Aspergillus niger LOCK E201” value [1] read?
A: 8 µg/mL (≈ 7.92 µM)

Q: And the “Antifungal activity Candida albicans ATCC 10231 IC50” value ([2]; Table 2A, RPMI 1640, pH 7.0, A531 50% of control)?
A: 3.14 µg/mL

Q: What about the “Antifungal activity Candida albicans ATCC 10231 MIC” value [2, 13] of the same compound?
A: 4 µg/mL

Q: And the “MIC Candida albicans ATCC 10231” value ([2]; Table 2B)?
A: 4 µg/mL (≈ 3.96 µM)

Q: And the “MIC Candida arborea KKP 319” value (Candida arborea KKP 319)?
A: 8 µg/mL (≈ 7.92 µM)

Q: What about the “MIC Candida dubliniensis CBS 7987” value [3] of the same compound?
A: 2 µg/mL (≈ 1.98 µM)

Q: What about the “Antifungal activity Candida glabrata DSM 11226 MIC” value [4] of the same compound?
A: 4 µg/mL

Q: And the “Antifungal activity Candida krusei DSM 6128 MIC” value (Candida krusei DSM 6128)?
A: 8 µg/mL

Q: And the “MIC Candida lipolytica KKP 322” value [5]?
A: 4 µg/mL (≈ 3.96 µM)

Q: What about the “MIC Candida parapsilosis DSM 5784” value [6] of the same compound?
A: 8 µg/mL (≈ 7.92 µM)

Q: What about the “MIC Candida pseudotropicalis KKP 324” value [7] of the same compound?
A: 4 µg/mL (≈ 3.96 µM)

Q: What about the “MIC Candida quilliermondii DSM 11947” value [8] of the same compound?
A: 8 µg/mL (≈ 7.92 µM)

Q: And the “MIC Candida stellatoidea CBS 1905” value [9]?
A: 4 µg/mL (≈ 3.96 µM)

Q: And the “Antifungal activity Candida tropicalis KKP 334 MIC” value [10]?
A: 4 µg/mL

Q: And the “Antifungal activity Saccharomyces cerevisiae ATCC 9763 MIC” value [11, 13]?
A: 2 µg/mL

Q: What about the “MIC Saccharomyces cerevisiae ATCC 9763” value ([11]; Table 2B) of the same compound?
A: 2 µg/mL (≈ 1.98 µM)

Q: And the “MIC Trichoderma viride LOCK E159” value [12]?
A: 8 µg/mL (≈ 7.92 µM)

Q: And the EH10 (Human erythrocytes)?
A: 202.34 µg/mL

Q: What about the “MIC Candida albicans 5674” value (Candida albicans 5674) of the same compound?
A: 4 µg/mL (≈ 3.96 µM)

Q: What about the “MIC Candida albicans B3” value (Candida albicans B3) of the same compound?
A: 8 µg/mL (≈ 7.92 µM)

Q: And the “MIC Candida albicans B4” value (Candida albicans B4)?
A: 8 µg/mL (≈ 7.92 µM)

Q: And the “MIC Candida albicans F2” value (Candida albicans F2)?
A: 4 µg/mL (≈ 3.96 µM)

Q: What about the “MIC Candida albicans F5” value (Candida albicans F5) of the same compound?
A: 4 µg/mL (≈ 3.96 µM)

Q: What about the “MIC Candida albicans Gu4” value (Candida albicans Gu4) of the same compound?
A: 8 µg/mL (≈ 7.92 µM)

Q: And the “MIC Candida albicans Gu5” value (Candida albicans Gu5)?
A: 8 µg/mL (≈ 7.92 µM)

Q: And the “MIC Candida albicans STY19” value (Candida albicans STY19)?
A: 4 µg/mL (≈ 3.96 µM)

Q: And the “MIC Candida albicans STY31” value (Candida albicans STY31)?
A: 4 µg/mL (≈ 3.96 µM)

Q: What about the “MIC Candida albicans STY7” value (Candida albicans STY7) of the same compound?
A: 4 µg/mL (≈ 3.96 µM)

Q: And the “Cytotoxicity IC50 CCRF-CEM” value (CCRF-CEM)?
A: >100 µg/mL

Q: And the “Cytotoxicity IC50 HepG2” value (HepG2)?
A: 82.9 ± 19.87 µg/mL

Q: And the “Cytotoxicity IC50 LLC-PK1” value (LLC-PK1)?
A: >100 µg/mL
